Assay results reported in PMC4457528, “Identification of Novel Small Molecule Inhibitors of Oncogenic RET Kinase” (PLoS ONE, 2015).
Several values for one entry are separate records, joined by “and”; a condition that tells them apart may be missing. Identical values can stand only once. Like-named read-outs stand apart in the source and are kept apart here.

Tests used:
Experiment in all cases: KinomeScan kinase panel, single concentration 10 µM
Assay type in all cases: binding
[1] = biological target: T1, KinomeScan kinase panel (Homo sapiens, UniProt P00533); conditions: EGFR, 10 µM
T1 construct: purchased DiscoveRx (KinomeScan)
T1 sequence (P00533 25-1210): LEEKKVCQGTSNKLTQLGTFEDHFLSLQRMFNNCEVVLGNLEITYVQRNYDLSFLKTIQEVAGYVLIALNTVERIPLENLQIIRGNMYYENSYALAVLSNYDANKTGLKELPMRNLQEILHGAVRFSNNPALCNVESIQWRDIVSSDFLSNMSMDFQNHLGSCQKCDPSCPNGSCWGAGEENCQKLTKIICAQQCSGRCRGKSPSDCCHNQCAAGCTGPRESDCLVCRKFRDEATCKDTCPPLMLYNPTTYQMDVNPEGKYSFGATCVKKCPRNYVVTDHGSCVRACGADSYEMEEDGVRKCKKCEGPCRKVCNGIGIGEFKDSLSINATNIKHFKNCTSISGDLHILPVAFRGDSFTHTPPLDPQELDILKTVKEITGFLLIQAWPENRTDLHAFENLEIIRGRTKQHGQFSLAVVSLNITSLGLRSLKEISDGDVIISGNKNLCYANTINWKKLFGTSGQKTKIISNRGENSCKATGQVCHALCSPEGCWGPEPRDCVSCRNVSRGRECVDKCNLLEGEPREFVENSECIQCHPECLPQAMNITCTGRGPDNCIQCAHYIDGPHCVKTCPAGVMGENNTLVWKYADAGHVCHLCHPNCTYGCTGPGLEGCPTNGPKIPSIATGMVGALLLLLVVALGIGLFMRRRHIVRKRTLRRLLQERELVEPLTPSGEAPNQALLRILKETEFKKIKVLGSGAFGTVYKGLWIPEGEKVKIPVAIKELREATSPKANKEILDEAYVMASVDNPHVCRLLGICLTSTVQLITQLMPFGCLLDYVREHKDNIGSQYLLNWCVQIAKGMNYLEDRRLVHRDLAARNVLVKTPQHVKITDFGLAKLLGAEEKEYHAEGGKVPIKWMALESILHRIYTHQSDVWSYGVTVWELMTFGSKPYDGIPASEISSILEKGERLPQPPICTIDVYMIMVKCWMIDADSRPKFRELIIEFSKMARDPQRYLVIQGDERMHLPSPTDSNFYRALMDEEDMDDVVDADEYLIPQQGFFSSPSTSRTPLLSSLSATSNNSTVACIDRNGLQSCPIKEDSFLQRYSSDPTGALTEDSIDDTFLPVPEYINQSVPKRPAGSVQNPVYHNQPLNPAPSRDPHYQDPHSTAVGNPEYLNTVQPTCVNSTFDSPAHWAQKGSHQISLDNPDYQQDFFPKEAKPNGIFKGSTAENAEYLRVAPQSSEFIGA

[2] = biological target: T2, KinomeScan kinase panel (Homo sapiens, UniProt Q13976); conditions: read-out: score (%)
T2 construct: purchased DiscoveRx (KinomeScan)
T2 sequence (Q13976 1-671): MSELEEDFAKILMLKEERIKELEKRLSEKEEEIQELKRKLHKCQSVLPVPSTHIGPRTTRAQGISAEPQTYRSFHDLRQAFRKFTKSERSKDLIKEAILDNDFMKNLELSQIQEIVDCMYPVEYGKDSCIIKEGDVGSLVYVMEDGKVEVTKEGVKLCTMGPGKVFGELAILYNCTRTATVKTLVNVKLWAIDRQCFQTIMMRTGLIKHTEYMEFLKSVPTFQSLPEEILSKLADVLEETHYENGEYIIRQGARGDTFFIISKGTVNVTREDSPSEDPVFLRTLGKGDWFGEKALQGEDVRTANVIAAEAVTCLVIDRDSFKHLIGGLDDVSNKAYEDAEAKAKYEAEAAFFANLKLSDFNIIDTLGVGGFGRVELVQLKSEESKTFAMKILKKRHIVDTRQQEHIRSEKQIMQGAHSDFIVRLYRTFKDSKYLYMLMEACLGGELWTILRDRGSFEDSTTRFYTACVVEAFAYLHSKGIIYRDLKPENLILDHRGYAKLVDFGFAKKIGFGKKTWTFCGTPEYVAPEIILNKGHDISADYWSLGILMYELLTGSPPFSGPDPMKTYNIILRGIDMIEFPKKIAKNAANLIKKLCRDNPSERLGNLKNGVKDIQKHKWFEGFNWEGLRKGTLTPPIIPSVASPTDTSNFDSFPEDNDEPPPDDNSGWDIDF

[3] = biological target: T3, KinomeScan kinase panel (Homo sapiens, UniProt P27448); conditions: MARK3, 10 µM; read-out: score (%)
T3 construct: purchased DiscoveRx (KinomeScan)
T3 sequence (P27448 whole entry): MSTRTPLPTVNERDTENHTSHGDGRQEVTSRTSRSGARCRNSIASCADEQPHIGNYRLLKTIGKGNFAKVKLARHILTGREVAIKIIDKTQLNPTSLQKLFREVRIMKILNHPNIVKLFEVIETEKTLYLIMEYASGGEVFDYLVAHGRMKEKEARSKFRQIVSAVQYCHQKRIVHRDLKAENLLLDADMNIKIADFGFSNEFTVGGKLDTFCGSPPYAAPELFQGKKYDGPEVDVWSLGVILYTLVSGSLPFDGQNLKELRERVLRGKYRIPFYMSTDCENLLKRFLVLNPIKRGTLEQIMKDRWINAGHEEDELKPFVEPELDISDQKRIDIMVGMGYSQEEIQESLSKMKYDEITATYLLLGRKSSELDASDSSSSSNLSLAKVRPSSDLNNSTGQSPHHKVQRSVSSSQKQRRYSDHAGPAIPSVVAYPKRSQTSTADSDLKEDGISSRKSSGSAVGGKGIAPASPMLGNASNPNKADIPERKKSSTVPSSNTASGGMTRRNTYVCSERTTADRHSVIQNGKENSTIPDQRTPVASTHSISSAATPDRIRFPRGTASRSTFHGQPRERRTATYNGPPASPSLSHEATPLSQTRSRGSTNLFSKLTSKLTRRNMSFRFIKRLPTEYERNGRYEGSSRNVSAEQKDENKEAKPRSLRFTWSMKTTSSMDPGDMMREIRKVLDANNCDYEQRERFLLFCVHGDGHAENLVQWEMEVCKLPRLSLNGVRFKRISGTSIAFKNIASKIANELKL

[4] = system: KinomeScan kinase panel
[5] = biological target: T4, KinomeScan kinase panel (Homo sapiens, UniProt Q13164); conditions: ERK5, 10 µM; read-out: score (%)
T4 construct: purchased DiscoveRx (KinomeScan)
T4 sequence (Q13164 whole entry): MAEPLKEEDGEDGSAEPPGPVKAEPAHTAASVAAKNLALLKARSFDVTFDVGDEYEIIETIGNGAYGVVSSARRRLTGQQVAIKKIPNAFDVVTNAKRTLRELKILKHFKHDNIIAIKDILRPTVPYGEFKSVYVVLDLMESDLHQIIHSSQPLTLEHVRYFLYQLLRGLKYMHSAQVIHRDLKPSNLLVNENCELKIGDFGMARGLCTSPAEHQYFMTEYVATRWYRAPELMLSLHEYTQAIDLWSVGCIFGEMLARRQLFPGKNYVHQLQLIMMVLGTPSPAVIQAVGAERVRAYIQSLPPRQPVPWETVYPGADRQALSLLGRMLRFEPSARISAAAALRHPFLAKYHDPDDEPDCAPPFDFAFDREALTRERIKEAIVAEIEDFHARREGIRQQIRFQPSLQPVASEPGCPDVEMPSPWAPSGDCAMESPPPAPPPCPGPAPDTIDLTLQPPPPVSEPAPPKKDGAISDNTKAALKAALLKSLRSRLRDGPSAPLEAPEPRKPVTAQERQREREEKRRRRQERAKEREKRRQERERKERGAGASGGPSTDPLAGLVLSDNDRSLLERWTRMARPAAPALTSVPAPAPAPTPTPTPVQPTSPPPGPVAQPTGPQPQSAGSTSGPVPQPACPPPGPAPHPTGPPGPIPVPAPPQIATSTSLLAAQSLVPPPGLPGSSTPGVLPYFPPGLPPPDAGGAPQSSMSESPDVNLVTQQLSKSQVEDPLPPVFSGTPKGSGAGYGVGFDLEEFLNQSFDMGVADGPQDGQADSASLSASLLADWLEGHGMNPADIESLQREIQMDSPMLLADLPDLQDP

[6] = biological target: T5, KinomeScan kinase panel (Homo sapiens, UniProt Q09013); conditions: DMPK, 10 µM; read-out: score (%)
T5 construct: purchased DiscoveRx (KinomeScan)
T5 sequence (Q09013 1-629): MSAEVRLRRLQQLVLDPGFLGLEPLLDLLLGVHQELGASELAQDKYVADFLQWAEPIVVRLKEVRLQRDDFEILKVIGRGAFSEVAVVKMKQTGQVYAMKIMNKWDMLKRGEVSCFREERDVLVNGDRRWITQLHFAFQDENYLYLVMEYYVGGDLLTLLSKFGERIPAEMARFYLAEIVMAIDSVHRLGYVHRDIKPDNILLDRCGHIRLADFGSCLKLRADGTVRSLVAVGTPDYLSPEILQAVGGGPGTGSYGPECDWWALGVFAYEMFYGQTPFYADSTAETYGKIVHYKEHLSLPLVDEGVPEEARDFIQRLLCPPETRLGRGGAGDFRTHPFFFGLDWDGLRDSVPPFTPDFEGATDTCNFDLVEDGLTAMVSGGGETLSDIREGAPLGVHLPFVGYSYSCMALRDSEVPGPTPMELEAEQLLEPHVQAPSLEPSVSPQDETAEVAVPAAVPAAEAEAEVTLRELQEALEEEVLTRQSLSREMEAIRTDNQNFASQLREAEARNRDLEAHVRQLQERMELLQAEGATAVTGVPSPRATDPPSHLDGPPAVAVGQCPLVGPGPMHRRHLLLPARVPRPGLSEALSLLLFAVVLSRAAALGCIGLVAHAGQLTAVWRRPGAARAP

[7] = biological target: T6, KinomeScan kinase panel (Homo sapiens, UniProt Q16513); conditions: PKN2, 10 µM; read-out: score (%)
T6 construct: purchased DiscoveRx (KinomeScan)
T6 sequence (Q16513 whole entry): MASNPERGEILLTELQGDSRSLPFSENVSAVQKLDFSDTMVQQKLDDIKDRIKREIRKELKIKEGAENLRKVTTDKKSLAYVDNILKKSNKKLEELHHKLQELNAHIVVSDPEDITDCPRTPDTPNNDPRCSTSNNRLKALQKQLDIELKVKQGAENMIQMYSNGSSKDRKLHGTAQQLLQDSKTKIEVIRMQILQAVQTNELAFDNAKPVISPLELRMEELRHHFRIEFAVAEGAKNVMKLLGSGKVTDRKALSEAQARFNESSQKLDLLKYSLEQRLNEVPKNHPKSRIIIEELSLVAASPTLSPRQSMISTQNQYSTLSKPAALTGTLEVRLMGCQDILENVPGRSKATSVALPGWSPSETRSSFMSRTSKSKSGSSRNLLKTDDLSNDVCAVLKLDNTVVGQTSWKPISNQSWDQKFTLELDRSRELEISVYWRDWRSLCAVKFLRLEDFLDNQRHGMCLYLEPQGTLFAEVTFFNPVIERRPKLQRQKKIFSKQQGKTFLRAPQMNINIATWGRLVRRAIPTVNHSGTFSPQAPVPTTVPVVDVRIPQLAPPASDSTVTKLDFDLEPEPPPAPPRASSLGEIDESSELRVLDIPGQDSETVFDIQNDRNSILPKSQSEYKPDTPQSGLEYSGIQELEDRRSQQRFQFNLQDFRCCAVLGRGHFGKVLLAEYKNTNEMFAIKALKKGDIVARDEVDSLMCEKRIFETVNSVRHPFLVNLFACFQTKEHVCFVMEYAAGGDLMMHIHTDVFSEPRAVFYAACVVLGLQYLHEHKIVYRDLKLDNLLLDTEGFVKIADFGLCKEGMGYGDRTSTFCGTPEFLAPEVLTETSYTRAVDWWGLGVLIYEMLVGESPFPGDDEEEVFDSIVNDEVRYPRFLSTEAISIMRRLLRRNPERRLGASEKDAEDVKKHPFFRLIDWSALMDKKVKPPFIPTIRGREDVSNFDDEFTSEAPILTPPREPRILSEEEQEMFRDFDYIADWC

[8] = biological target: T7, KinomeScan kinase panel (Homo sapiens, UniProt Q8TDR2); conditions: read-out: score (%)
T7 construct: purchased DiscoveRx (KinomeScan)
T7 sequence (Q8TDR2 whole entry): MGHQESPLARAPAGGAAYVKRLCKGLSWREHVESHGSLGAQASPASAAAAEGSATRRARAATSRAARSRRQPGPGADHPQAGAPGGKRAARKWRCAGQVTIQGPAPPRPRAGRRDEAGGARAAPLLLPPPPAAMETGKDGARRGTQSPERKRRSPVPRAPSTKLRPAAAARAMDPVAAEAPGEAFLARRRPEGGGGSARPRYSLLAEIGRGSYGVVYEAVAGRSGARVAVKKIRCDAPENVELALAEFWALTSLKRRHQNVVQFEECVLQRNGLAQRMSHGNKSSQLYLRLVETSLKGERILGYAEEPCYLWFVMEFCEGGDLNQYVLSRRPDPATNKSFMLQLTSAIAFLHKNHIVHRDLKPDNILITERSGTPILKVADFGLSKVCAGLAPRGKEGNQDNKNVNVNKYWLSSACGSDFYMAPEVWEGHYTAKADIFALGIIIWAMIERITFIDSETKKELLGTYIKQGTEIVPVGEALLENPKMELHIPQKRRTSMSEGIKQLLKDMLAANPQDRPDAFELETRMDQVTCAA

[9] = biological target: T8, KinomeScan kinase panel (Homo sapiens, UniProt P41240); conditions: CSK, 10 µM
T8 construct: purchased DiscoveRx (KinomeScan)

[10] = biological target: T9, KinomeScan kinase panel (Homo sapiens, UniProt P36888, D835H); conditions: FLT3(D835H), 10 µM; read-out: score (%)
T9 construct: purchased DiscoveRx (KinomeScan)
T9 sequence (P36888 27-993 D835H): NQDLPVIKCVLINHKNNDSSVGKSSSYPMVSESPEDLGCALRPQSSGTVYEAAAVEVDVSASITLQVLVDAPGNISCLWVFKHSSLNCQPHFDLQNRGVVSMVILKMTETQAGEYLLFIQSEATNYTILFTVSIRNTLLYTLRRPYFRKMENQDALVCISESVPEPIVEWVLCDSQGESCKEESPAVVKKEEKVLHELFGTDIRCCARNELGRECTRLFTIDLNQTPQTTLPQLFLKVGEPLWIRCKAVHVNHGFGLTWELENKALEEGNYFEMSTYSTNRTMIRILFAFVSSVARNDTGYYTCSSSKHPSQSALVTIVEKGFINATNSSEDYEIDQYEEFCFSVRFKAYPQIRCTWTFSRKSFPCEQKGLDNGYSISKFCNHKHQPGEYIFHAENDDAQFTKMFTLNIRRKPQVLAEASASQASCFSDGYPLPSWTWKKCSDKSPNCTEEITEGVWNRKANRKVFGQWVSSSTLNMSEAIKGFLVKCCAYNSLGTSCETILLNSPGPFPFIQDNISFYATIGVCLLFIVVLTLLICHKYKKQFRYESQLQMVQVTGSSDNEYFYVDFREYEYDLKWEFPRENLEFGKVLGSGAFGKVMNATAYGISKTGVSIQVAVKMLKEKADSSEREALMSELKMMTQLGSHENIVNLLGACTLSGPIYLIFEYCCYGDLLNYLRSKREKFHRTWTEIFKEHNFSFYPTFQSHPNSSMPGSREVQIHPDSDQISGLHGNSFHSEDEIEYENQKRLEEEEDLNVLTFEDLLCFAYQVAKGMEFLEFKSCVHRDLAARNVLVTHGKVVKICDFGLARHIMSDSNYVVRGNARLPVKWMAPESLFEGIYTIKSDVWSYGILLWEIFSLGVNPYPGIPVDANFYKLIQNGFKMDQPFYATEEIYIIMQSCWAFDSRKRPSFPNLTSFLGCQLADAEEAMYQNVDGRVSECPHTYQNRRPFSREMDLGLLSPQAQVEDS

[11] = EGFR(L747-E749del. A750P), 10 µM
[12] = EGFR(L747-S752del. P753S), 10 µM

remaining binding at 10 µM ([8]; STK35, 10 µM) [%]	SMILES	score (%) [1] [%]	remaining binding at 10 µM ([2]; PRKG1, 10 µM) [%]	remaining binding at 10 µM [3] [%]	score (%) [4]	score (%) ([4]; FLT3(ITD), 10 µM)	score (%) ([4]; kinase TAO1, 10 µM)	remaining binding at 10 µM [5] [%]	remaining binding at 10 µM [6] [%]	remaining binding at 10 µM [7] [%]	remaining binding at 10 µM ([8]; kinase STK35, 10 µM) [%]	score (%) [9] [%]	remaining binding at 10 µM [10] [%]	score (%) [4, 11] [%]	score (%) [4, 12] [%]	score (%) ([4]; EGFR(L747-T751del.Sins), 10 µM)	remaining binding at 10 µM ([2]; kinase PRKG1, 10 µM) [%]
–	CCN1CCN(Cc2ccc(NC(=O)c3ccc(C)c(NC(=O)c4cncc(-c5cccs5)c4)c3)cc2C(F)(F)F)CC1 [ALW-II-41-27]	1.3	> 30	> 30	0.55% and 3% and 1.8%	0.4	12	> 30	> 30	> 30	21	0.65	1.4	–	–	–	–
> 30	CCN1CCN(Cc2ccc(NC(=O)c3ccc(C)c(/C=C/c4cnc5[nH]ccc5c4Cl)c3)cc2C(F)(F)F)CC1 [HG-6-63-01, (E)-3-(2-(4-chloro-1H-pyrrolo[2,3-b]pyridin-5-yl)vinyl)-N-(4-((4-ethylpiperazin-1-yl)methyl)-3-(trifluoromethyl)phenyl)-4-methylbenzamide]	0.3	> 30	29	–	0.1	–	> 30	> 30	23	–	2.1	0.1	0	0	0	–
–	CCN1CCN(Cc2ccc(NC(=O)c3ccc(C)c(C#Cc4cccnc4)c3)cc2C(F)(F)F)CC1 [XMD15-44]	3	–	> 30	–	0.1	–	> 30	> 30	36	1.6	0.15	0.15	1.2	0.9	0.45	100
